Measurements reported in US7592332B2, “Cytokine inhibitors” (Boehringer Ingelheim Pharmaceuticals, Inc., priority 2004, dated 2009).
Where a name gives a salt, the structure may show the parent alone.

melting point | Structure (SMILES)
72 to 74 °C (dec.) | COc1cnc(C(C)(C)C)cc1NC(=O)c1cc2cccc(Oc3ccnc(N4CCN(C)CC4)n3)c2n1C (as salt: salt) [Example 2, 1-methyl-7-[2-(4-methyl-piperazin-1-yl)-pyrimidin-4-yloxy]-1H-indole-2-carboxylic acid (2-tert-butyl-5-methoxy-pyridin-4-yl)-amide]
158 to 159 °C (dec.) | Cn1c(C(=O)Nc2cc(C(C)(C)C)ccc2S(C)(=O)=O)cc2cccc(Oc3ccncc3)c21 [Example 4, 1-methyl-7-(pyridine-4-yloxy)-1H-indole-2-carboxylic acid (5-tert-butyl-2-methanesulfonyl-phenyl)-amide]
236 to 238 °C (dec.) | Cn1c(C(=O)Nc2cc(C(C)(C)C)c[nH]c2=O)cc2cccc(Oc3ccncc3)c21 [Example 5, 1-methyl-7-(pyridine-4-yloxy)-1H-indole-2-carboxylic acid (5-tert-butyl-2-oxo-1,2-dihydropyridin-3-yl)-amide]
88 to 92 °C (dec.) | Cn1c(C(=O)Nc2cc(C(C)(C)C)ccc2[S+](C)[O-])cc2cccc(Oc3ccncc3)c21 (stereo not drawn) [Example 3, 1-methyl-7-(pyridine-4-yloxy)-1H-indole-2-carboxylic acid (5-tert-butyl-2-methanesulfinyl-phenyl)-amide]
52 to 56 °C (dec.) | Cc1ncc(C(C)(C)C)cc1NC(=O)c1cc2cccc(Oc3ccncc3)c2n1C [Example 7, 1-methyl-7-(pyridine-4-yloxy)-1H-indole-2-carboxylic acid (5-tert-butyl-2-methyl-pyridin-3-yl)-amide]
74 to 76 °C (dec.) | Cn1cc(C(C)(C)C)cc(NC(=O)c2cc3cccc(Oc4ccncc4)c3n2C)c1=O [Example 6, 1-methyl-7-(pyridine-4-yloxy)-1H-indole-2-carboxylic acid (5-tert-butyl-1-methyl-2-oxo-1,2-dihydropyridin-3-yl)-amide]
